Test: Dynamic MS-325 contrast-enhanced MRI of the genitalia/perineum during neutral and erotic video
Assay type: in vivo, human
Conditions: eight healthy women; 0.05 or 0.02 mmol/kg intravenous
Method: Imaging of the genitalia was performed in four pre-menopausal and four post-menopausal healthy, sexually functional women subjects after administration of MS-325 (MS-325, EPIX Medical, Inc.). All volunteers signed an IRB-approved informed consent form for the study.
Six of the subjects received an intravenous injection of 0.05 mmol/kg of MS-325 and two received an intravenous injection of 0.02 mmol/kg of MS-325. Dynamic MRI (3D SPGR, 11/1.7/35°) of the perineum was performed on all subjects while they viewed videos containing first neutral material, then erotic material and finally neutral material via a fiberoptic audiovideo system. Each segment of neutral or erotic material was up to 15 minutes in length. Subjects also filled out questionnaires in response to the videos that had them subjectively rate their degree of sexual arousal.
Serial imaging was performed at least every 3 minutes, beginning just prior to contrast injection and continuing up to 45 minutes post injection. […] Clitoral volume was measured at each time point. Relative regional blood volume was determined from signal intensity versus time curves and compared with subjective measures of arousal.
In these studies, MRI was compared with vaginal photoplethysmography to confirm that MRI accurately assessed the vascular component of the arousal response.

With `O=C([O-])CN(CCN(CC(=O)[O-])C[C@H](COP(=O)([O-])OC1CCC(c2ccccc2)(c2ccccc2)CC1)N(CC(=O)[O-])CC(=O)[O-])CC(=O)[O-].[Gd+3].[H+].[H+].[H+]` [MS-325] the “tolerability of the procedure (contrast injection and MRI)” value was “tolerated”.

Source: US6969507B2, “Imaging sexual response” (Epix Pharmaceuticals, Inc., priority 1999, dated 2005)
